Entries after “also recorded” stand apart in the source; their conditions may differ. Ends that are not written are not given here.
Key:
Format in all cases: cell-based, mouse
[1] = system: differentiated PSC colonies; assay: Insulin release by differentiated PSC colonies (radioimmunoassay); conditions: 1.5 hour incubation; for insulin release in response to high glucose plus agent: 20 mM glucose with 30 nM GLP-1, 10 mM TEA or 100 μM verapamil; for insulin release in response to agent alone: 20 mM glucose (HG) or 100 μM carbachol alone, relative to LG-KRB
Description: PSC colonies were pooled and differentiated (8 per well, 96-well Matrigel-coated plates) for 7 days as described. Twenty-four hours prior to secretion studies, the medium was changed to supplemented RPMI-1640 medium as outlined above. Differentiated PSC colonies were pre-incubated in low glucose (2.5 mM) KRB solution (LG-KRB) for 1 hour. The solution was changed to 150 μl of fresh LG-KRB and the cultures were incubated for 1.5 hours to establish the basal level of insulin release. […] Insulin was measured using an RIA kit (Linco). Insulin release during the experimental 1.5 hour incubation was compared to the level determined during the basal 1.5 hour incubation period for each individual well to obtain a percent change. The data are expressed relative to the percent change measured for the LG-KRB to LG-KRB alone condition.

[2] = system: YFP+ cells from islet- and ductal-derived PSC cultures; assay: [Ca2+]i imaging (Fura2) of RIP-YFP+ cells from differentiated PSC colonies; conditions: agent added on top of glucose; single YFP+ cells, islet- and ductal-derived PSC progeny
PSC spheres = assay: PSC sphere colony formation assay and serum-free passaging with BIO; conditions: BIO included during primary serum-free sphere formation and serum-free passaging; period of 5 months
Excerpt: 1) Using the standard PSC sphere colony formation assay, the (commercially available) compound, BIO ((2_Z,3_E)-6-Bromoindirubin-3_-oxime) has been included. […] The GSK-3α/β protein kinases have a critical role within the Wnt-signalling pathway, with their inhibition by BIO leading to an activation of the Wnt pathway. The Wnt pathway is involved with the specification/development of multiple tissues. With BIO inclusion during the primary serum-free sphere formation and subsequent serum-free passaging, PSC spheres can be passaged indefinitely. PSC spheres have been successfully passaged, currently up to the 9th passage over a period of 5 months. The number of sphere-forming cells and resultant clonal spheres expanded (over 30-fold) during this period.
Isolated islets and ductal tissue were then incubated with trypsin (Sigma) at 37° C. and triturated with a small-borehole siliconized pipette into a single cell suspension. Viable cells were counted using Trypan Blue (Sigma) exclusion and plated at 20 cells μl^−1 or less in defined serum-free medium (SFM)^63 containing B27 (Gibco-BRL), 10 ng ml^−1 FGF2 (Sigma), 2 μg ml^−1 heparin (Sigma), and 20 ng ml^−1 EGF (Sigma) for 7-14 DIV. […] Each well was scored after plating for the presence of a single cell. […]

Row | Compound | insulin release in response to high glucose plus agent [1] | effect of added agent on glucose-stimulated [Ca2+]i response [2] | further results
1 | CC[N+](CC)(CC)CC [TEA, tetra ethyl ammonium] | augmentation of this release; also recorded: increased insulin secretion; also recorded: increased insulin release | augmented | –
2 | glucagon-like peptide-1 (HAEGTFTSDVSSYLEGQAAKEFIAWLVKGR; ends and bridges not checked; UniProt P01275 98-127, looked up) [GLP-1, physiological secretagogue known to stimulate β-cells in a glucose-dependent manner] | augmentation of this release; also recorded: increased insulin secretion; also recorded: increased insulin release | augmented | –
3 | O=C1Nc2cc(Br)ccc2/C1=C1/Nc2ccccc2/C1=N\O [BIO, (2_Z,3_E)-6-Bromoindirubin-3_-oxime] | – | – | expansion of the number of sphere-forming cells and resultant clonal spheres (PSC spheres): over 30 fold
4 | COc1ccc(CCN(C)CCCC(C#N)(c2ccc(OC)c(OC)c2)C(C)C)cc1OC (centres unmarked) [verapamil] | abolishes glucose-stimulated insulin release to basal levels; also recorded: abolished the glucose-stimulated insulin release | – | –
5 | C[N+](C)(C)CCOC(N)=O [carbachol] | – | – | insulin release in response to agent alone [1]: insulin release in response to carbachol; also recorded: secrete insulin in response to carbachol; insulin release in response to agent alone ([1]; listed as Carbachol): increased insulin release

Source: patent US20050277190A1, “Pancreatic stem cells” (priority 2004, published 2005)
